For one experiment, the system named is ATXN3 pre-mRNA. The experiment is described as follows: RT-qPCR Assay to Quantify Exon 4 Skipping in ATXN3 pre-mRNA in Cells. It counts as cell-based. The following applies: percent exon 4 skipping in ATXN3 pre-mRNA, RT-qPCR of cell lysates; average IC50. The gist of the method:
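IC50 derives from a dose-response fit of percent exon 4 skipping, quantified by RT-qPCR on crude lysates. Compounds tested as 7-point 3.16-fold dilutions in duplicate; cells (10,000/well) were exposed for 24 h at 37 °C before lysis.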
(Quantitative PCR measures a nucleic acid by following its amplification.)

The subject of experiment [1] is Total ATXN3 (tATXN3) protein. The experiment is described as follows: Endogenous Total ATXN3 (tATXN3) Protein Assay (MSD immunoassay of cell lysates). In kind it is cell-based. To be noted: average IC50, total ATXN3 protein in cell lysate after 48 h with compound (Table 1). The gist of the method: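 By electrochemiluminescent MSD sandwich immunoassay (mouse monoclonal capture, rabbit monoclonal and SULFO-TAG anti-rabbit detection), endogenous ATXN3 was quantified in lysates of cells treated 48 h at 37° C at 10,000 cells/well. Treatment used a 7-point 3.16-fold duplicate dilution series, with average IC50 grouped into star categories.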

As to `N[C@H]1CCCO[C@@H]1c1sc2c(NCc3cccs3)cc(Cl)nc2c1C#CCO` (mixture of isomers) [Compound 252, 3-(2-((2R,3R)-3-aminotetrahydro-2H-pyran-2-yl)-5-chloro-7-((thiophen-2-ylmethyl)amino)thieno[3,2-b]pyridin-3-yl)prop-2-yn-1-ol and 3-(2-((2S,3S)-3-aminotetrahydro-2H-pyran-2-yl)-5-chloro-7-((thiophen-2-ylmethyl)amino)thieno[3,2-b]pyridin-3-yl)prop-2-yn-1-ol], the results for the IC50 (in the experiment with ATXN3 pre-mRNA; in experiment [1]) were ≤ 30 nM and 30 to 300 nM, respectively.
For `N[C@@H]1CCCO[C@H]1c1sc2c(NCc3ccco3)nc(Cl)nc2c1C#CCO.N[C@H]1CCCO[C@@H]1c1sc2c(NCc3ccco3)nc(Cl)nc2c1C#CCO` (mixture of isomers) [Compound 255, 3-(6-((2R,3R)-3-aminotetrahydro-2H-pyran-2-yl)-2-chloro-4-((furan-2-ylmethyl)amino)thieno[3,2-d]pyrimidin-7-yl)prop-2-yn-1-ol and 3-(6-((2S,3S)-3-aminotetrahydro-2H-pyran-2-yl)-2-chloro-4-((furan-2-ylmethyl)amino)thieno[3,2-d]pyrimidin-7-yl)prop-2-yn-1-ol], in that order: ≤ 30 nM and 30 to 300 nM.
As for `N[C@@H]1CCCC[C@H]1c1sc2c(NCc3cccs3)cc(Cl)nc2c1COC(F)F.N[C@H]1CCCC[C@@H]1c1sc2c(NCc3cccs3)cc(Cl)nc2c1COC(F)F` (mixture of isomers) [Compound 257, 2-((1S,2S)-2-aminocyclohexyl)-5-chloro-3-((difluoromethoxy)methyl)-N-(thiophen-2-ylmethyl)thieno[3,2-b]pyridin-7-amine and 2-((1R,2R)-2-aminocyclohexyl)-5-chloro-3-((difluoromethoxy)methyl)-N-(thiophen-2-ylmethyl)thieno[3,2-b]pyridin-7-amine], the concentration for half-maximal inhibition (IC50) (usually the concentration that inhibits the measured activity by half) is ≤ 30 nM with ATXN3 pre-mRNA and 30 to 300 nM in experiment [1].
For `N[C@@H]1COCC[C@H]1c1sc2c(NCc3cccs3)cc(Cl)nc2c1Cl.N[C@H]1COCC[C@@H]1c1sc2c(NCc3cccs3)cc(Cl)nc2c1Cl` (mixture of isomers) [Compound 272, 2-((3R,4S)-3-aminotetrahydro-2H-pyran-4-yl)-3,5-dichloro-N-(thiophen-2-ylmethyl)thieno[3,2-b]pyridin-7-amine and 2-((3S,4R)-3-aminotetrahydro-2H-pyran-4-yl)-3,5-dichloro-N-(thiophen-2-ylmethyl)thieno[3,2-b]pyridin-7-amine], in that order: 30 to 300 nM and 30 to 300 nM.
For `N[C@@H]1CCCCC1c1sc2c(NCc3cccs3)cc(Cl)nc2c1C(F)F.N[C@H]1CCCCC1c1sc2c(NCc3cccs3)cc(Cl)nc2c1C(F)F` (mixture of isomers) [Compound 279, 2-((2R)-2-aminocyclohexyl)-5-chloro-3-(difluoromethyl)-N-(thiophen-2-ylmethyl)thieno[3,2-b]pyridin-7-amine and 2-((2S)-2-aminocyclohexyl)-5-chloro-3-(difluoromethyl)-N-(thiophen-2-ylmethyl)thieno[3,2-b]pyridin-7-amine], in that order: 30 to 300 nM and 30 to 300 nM.
For `N[C@@H]1C[C@@H]2C[C@@H]2C[C@H]1c1sc2c(NCc3cccs3)cc(Cl)nc2c1Br.N[C@H]1C[C@H]2C[C@H]2C[C@@H]1c1sc2c(NCc3cccs3)cc(Cl)nc2c1Br` (mixture of isomers) [Compound 290, 2-((1R,3R,4R,6S)-4-aminobicyclo[4.1.0]heptan-3-yl)-3-bromo-5-chloro-N-(thiophen-2-ylmethyl)thieno[3,2-b]pyridin-7-amine and 2-((1S,3S,4S,6R)-4-aminobicyclo[4.1.0]heptan-3-yl)-3-bromo-5-chloro-N-(thiophen-2-ylmethyl)thieno[3,2-b]pyridin-7-amine], in that order: 30 to 300 nM and 30 to 300 nM.
Consider `C[C@@H]1C=CC[C@H](c2sc3c(NCc4cccs4)cc(Cl)nc3c2Br)[C@H]1N.C[C@H]1C=CC[C@@H](c2sc3c(NCc4cccs4)cc(Cl)nc3c2Br)[C@@H]1N` (mixture of isomers) [Compound 294, 2-((1R,5S,6R)-6-amino-5-methylcyclohex-3-en-1-yl)-3-bromo-5-chloro-N-(thiophen-2-ylmethyl)thieno[3,2-b]pyridin-7-amine and 2-((1S,5R,6S)-6-amino-5-methylcyclohex-3-en-1-yl)-3-bromo-5-chloro-N-(thiophen-2-ylmethyl)thieno[3,2-b]pyridin-7-amine], for which the IC50 (in the experiment on ATXN3 pre-mRNA; in experiment [1]) was 30 to 300 nM throughout.
Turning to `C/C=C/CNc1cc(Cl)nc2c(Br)c([C@@H]3CC=CC[C@H]3N)sc12.C/C=C/CNc1cc(Cl)nc2c(Br)c([C@H]3CC=CC[C@@H]3N)sc12` (mixture of isomers) [Compound 300, 2-((1R,6R)-6-aminocyclohex-3-en-1-yl)-3-bromo-N-((E)-but-2-en-1-yl)-5-chlorothieno[3,2-b]pyridin-7-amine and 2-((1S,6S)-6-aminocyclohex-3-en-1-yl)-3-bromo-N-((E)-but-2-en-1-yl)-5-chlorothieno[3,2-b]pyridin-7-amine], the IC50 (with ATXN3 pre-mRNA; in experiment [1]) was 30 to 300 nM throughout.
For the compound `N[C@@H]1COCC[C@H]1c1sc2c(NCc3ccccc3)cc(Cl)nc2c1Br.N[C@H]1COCC[C@@H]1c1sc2c(NCc3ccccc3)cc(Cl)nc2c1Br` (mixture of isomers) [Compound 328, 2-((3R,4S)-3-aminotetrahydro-2H-pyran-4-yl)-N-benzyl-3-bromo-5-chlorothieno[3,2-b]pyridin-7-amine and 2-((3S,4R)-3-aminotetrahydro-2H-pyran-4-yl)-N-benzyl-3-bromo-5-chlorothieno[3,2-b]pyridin-7-amine], the IC50 (with ATXN3 pre-mRNA; in experiment [1]) was 30 to 300 nM each time.
With `C#Cc1c([C@@H]2CCOC[C@H]2N)sc2c(NCc3ccco3)nc(Cl)nc12.C#Cc1c([C@H]2CCOC[C@@H]2N)sc2c(NCc3ccco3)nc(Cl)nc12` (mixture of isomers) [Compound 330, 6-((3R,4S)-3-aminotetrahydro-2H-pyran-4-yl)-2-chloro-7-ethynyl-N-(furan-2-ylmethyl)thieno[3,2-d]pyrimidin-4-amine and 6-((3S,4R)-3-aminotetrahydro-2H-pyran-4-yl)-2-chloro-7-ethynyl-N-(furan-2-ylmethyl)thieno[3,2-d]pyrimidin-4-amine], the concentration for half-maximal inhibition (IC50) (in the experiment with ATXN3 pre-mRNA; in experiment [1]) was 30 to 300 nM throughout.
On to `Cc1c([C@@H]2CCC[C@H](F)[C@H]2N)sc2c(NCc3cccs3)cc(Cl)nc12.Cc1c([C@H]2CCC[C@@H](F)[C@@H]2N)sc2c(NCc3cccs3)cc(Cl)nc12` (mixture of isomers) [Compound 342, 2-((1R,2S,3S)-2-amino-3-fluorocyclohexyl)-5-chloro-3-methyl-N-(thiophen-2-ylmethyl)thieno[3,2-b]pyridin-7-amine and 2-((1S,2R,3R)-2-amino-3-fluorocyclohexyl)-5-chloro-3-methyl-N-(thiophen-2-ylmethyl)thieno[3,2-b]pyridin-7-amine], for which the IC50 (in the experiment on ATXN3 pre-mRNA; in experiment [1]) was 30 to 300 nM each time.
As for `N[C@@H]1CCCO[C@H]1c1c(Cl)c2nc(Cl)nc(NCc3cccs3)c2n1C(F)F.N[C@H]1CCCO[C@@H]1c1c(Cl)c2nc(Cl)nc(NCc3cccs3)c2n1C(F)F` (mixture of isomers) [Compound 346, 6-((2S,3S)-3-aminotetrahydro-2H-pyran-2-yl)-2,7-dichloro-5-(difluoromethyl)-N-(thiophen-2-ylmethyl)-5H-pyrrolo[3,2-d]pyrimidin-4-amine and 6-((2R,3R)-3-aminotetrahydro-2H-pyran-2-yl)-2,7-dichloro-5-(difluoromethyl)-N-(thiophen-2-ylmethyl)-5H-pyrrolo[3,2-d]pyrimidin-4-amine], the IC50 (in the experiment with ATXN3 pre-mRNA; in experiment [1]) was 30 to 300 nM in each case.
Consider `N[C@@H]1CCCC[C@H]1c1sc2c(NCc3cccs3)cc(Cl)nc2c1C(F)(F)F.N[C@H]1CCCC[C@@H]1c1sc2c(NCc3cccs3)cc(Cl)nc2c1C(F)(F)F` (mixture of isomers) [Compound 356, 2-((1S,2S)-2-aminocyclohexyl)-5-chloro-N-(thiophen-2-ylmethyl)-3-(trifluoromethyl)thieno[3,2-b]pyridin-7-amine and 2-((1R,2R)-2-aminocyclohexyl)-5-chloro-N-(thiophen-2-ylmethyl)-3-(trifluoromethyl)thieno[3,2-b]pyridin-7-amine], for which the IC50 (in the experiment with ATXN3 pre-mRNA; in experiment [1]) was 30 to 300 nM each time.
On to `Cc1c([C@@H]2CC=CC[C@H]2N)n(C(F)F)c2c(NCc3ccco3)nc(Cl)nc12.Cc1c([C@H]2CC=CC[C@@H]2N)n(C(F)F)c2c(NCc3ccco3)nc(Cl)nc12` (mixture of isomers) [Compound 358, 6-((1R,6R)-6-aminocyclohex-3-en-1-yl)-2-chloro-5-(difluoromethyl)-N-(furan-2-ylmethyl)-7-methyl-5H-pyrrolo[3,2-d]pyrimidin-4-amine and 6-((1S,6S)-6-aminocyclohex-3-en-1-yl)-2-chloro-5-(difluoromethyl)-N-(furan-2-ylmethyl)-7-methyl-5H-pyrrolo[3,2-d]pyrimidin-4-amine], for which the IC50 (in the experiment on ATXN3 pre-mRNA; in experiment [1]) was 30 to 300 nM in each case.
For the compound `N[C@@H]1CCCC(F)(F)[C@@H]1c1sc2c(NCc3cccs3)cc(Cl)nc2c1Br.N[C@H]1CCCC(F)(F)[C@H]1c1sc2c(NCc3cccs3)cc(Cl)nc2c1Br` (mixture of isomers) [Compound 359, 2-((1R,6R)-6-amino-2,2-difluorocyclohexyl)-3-bromo-5-chloro-N-(thiophen-2-ylmethyl)thieno[3,2-b]pyridin-7-amine and 2-((1S,6S)-6-amino-2,2-difluorocyclohexyl)-3-bromo-5-chloro-N-(thiophen-2-ylmethyl)thieno[3,2-b]pyridin-7-amine], the IC50 (with ATXN3 pre-mRNA; in experiment [1]) was 30 to 300 nM throughout.

The values above are taken from patent publication US20250382305A1 (PTC THERAPEUTICS, INC., priority 2022, published 2025).
